What was measured:
[1] = In vivo PK study in cynomolgus monkeys; conditions: male cynomolgus monkeys
Description: Male cynomolgus monkeys were used as assay animals. After a single administration, the plasma concentration of the compound was measured and the pharmacokinetic behavior was evaluated.
Five healthy adult male cynomolgus monkeys were selected, wherein 2 animals were in an intravenous injection group, and 3 animals were in an oral group. The vehicle in the intravenous injection group was 5% DMSO+95% (20% HP-β-CD). The compound to be assayed was mixed with an appropriate amount of vehicle for intravenous injection, and dissolved with stirring to prepare a clear solution of 0.4 mg/mL. The clear solution was filtered by a microporous membrane, and then ready for use. The vehicle in the oral group was 5% DMSO+95% (20% HP-β-CD). The compound to be assayed was mixed with the vehicle, and dissolved with stirring to prepare a solution of 0.3 mg/mL. Cynomolgus monkeys were administered 1 mg/kg intravenously or 3 mg/kg orally, and then whole blood was collected for a certain period. Plasma was prepared. The drug concentration was analyzed by LC-MS/MS method, and the pharmacokinetic parameters were calculated by Phoenix WinNonlin software (Pharsight, USA).

human plasma albumin = test: Plasma protein binding (PPB), human plasma; assay type: in vitro ADME; conditions: ultracentrifugation, 37° C., 4 h
Description: The binding degree of the assay compound to human/mouse/rat/canine/monkey plasma albumin was studied.
• 1) Matrix preparation: on the day of the assay, plasma was thawed in cold water and centrifuged at 3220 rpm for 5 min to remove all clots. The pH of the resulting plasma was measured and adjusted to 7.4±0.1 using 1% phosphoric acid or 1N sodium hydroxide as needed. • 2) Dilution procedure for the assay compound: the assay compound was dissolved in dimethyl sulfoxide (DMSO) to prepare stock solutions with concentrations of 10 mM and 2 mM, respectively. A 40 μM working solution was prepared by diluting 2 μL of stock solution (2 mM) with 98 μL of DMSO. A 400 μM working solution of the control compound was prepared by diluting 10 μL of stock solution with 240 μL of DMSO. The working solution of the compound (5 μL) was mixed well with a blank matrix (995 μL) at a ratio of 1:200 to prepare a loading matrix.
• a) An equal volume of 30 μL of loading matrix (n=2) was transferred to a sample collection plate to prepare a time 0 (TO) sample for residue determination. The sample was immediately matched with the corresponding blank buffer to a final volume of 60 μL, and the volume ratio of plasma to buffer in each well was 1:1. […] The mixture was centrifuged at 4000 rpm for 20 min and 100 μL of supernatant from each sample was analyzed by LC-MS/MS.

ERK2 = ERK2 (Homo sapiens (Human), UniProt P28482); test: In vitro ERK2 kinase activity assay (33P-ATP, filter-binding); assay type: biochemical
Description: The ability of compounds to inhibit ERK1 and ERK2 kinase activity was measured.
20 mM Hepes (pH 7.5), 10 mM MgCl2, 1 mM ethylenebis(oxyethylenenitrilo)tetraacetic acid (EGTA), 0.02% Brij35, 0.02 mg/mL bovine serum albumin (BSA), 0.1 mM Na3VO4, 2 mM dithiothreitol (DTT), 1% DMSO.
The assay compound was dissolved in 100% DMSO to prepare a stock solution of specific concentration. The compound was serially diluted in DMSO solution using Integra Viaflo Assist smart pipette.
• a) The substrate MBP was prepared in freshly prepared reaction buffer; • b) ERK1 (or ERK2) kinase was added to the above-mentioned MBP solution and mixed gently; • c) The compound dissolved in 100% DMSO was added to the kinase reaction system using ultrasound technology (Echo550; nanoliter range), and the mixture was incubated at room temperature for 20 minutes; • d)^33P-ATP (specific concentration of […]) was added to the reaction system, and the reaction was started at this time; • e) The mixture was incubated at room temperature for 2 hours; • f) The amount of radioactivity was detected by filter-binding method; • g) ERK1 (or ERK2) kinase activity was calculated as the ratio of the remaining kinase activity in the assay sample to the kinase activity of the control group (treated by DMSO).
Curve was fitted using Prism (GraphPad software) and IC50 values were calculated.

ERK2, sequence (P28482 whole entry): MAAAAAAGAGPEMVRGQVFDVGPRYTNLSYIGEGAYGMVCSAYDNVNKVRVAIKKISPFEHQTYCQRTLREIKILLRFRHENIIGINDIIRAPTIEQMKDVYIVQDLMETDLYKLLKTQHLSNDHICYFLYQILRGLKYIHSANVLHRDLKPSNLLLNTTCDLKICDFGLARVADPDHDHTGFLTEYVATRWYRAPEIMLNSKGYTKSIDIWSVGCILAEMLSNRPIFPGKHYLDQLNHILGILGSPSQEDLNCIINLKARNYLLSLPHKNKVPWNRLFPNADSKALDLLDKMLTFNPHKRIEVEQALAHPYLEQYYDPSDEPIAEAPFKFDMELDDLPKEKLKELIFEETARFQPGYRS

Structure (SMILES): Cc1cccc(CN2C(=O)c3nc(-c4nc(Nc5ccnn5C)ncc4C)sc3C2(C)C)n1 [WX001]
- clearance ([1]; cynomolgus monkey, plasma, iv, 1 mg/kg intravenously): 7.9 mL/min/kg
- Vd ([1]; cynomolgus monkey, plasma, iv, 1 mg/kg intravenously, read-out: Vdss): 1.19 L/kg
- bioavailability ([1]; cynomolgus monkey, plasma, oral, 1 mg/kg intravenously / 3 mg/kg orally, read-out: F % (oral bioavailability)): 41%
- half-life ([1]; cynomolgus monkey, plasma, single administration): 2 h
- Cmax ([1]; cynomolgus monkey, po, 3 mg/kg orally, plasma): 1250 nM
- Oral DNAUC (AUCPO/Dose) ([1]; 3 mg/kg orally): 1995.93 nM · h/mpk
- Plasma protein binding rate (unbound %) (human plasma albumin): 6.1%
- IC50 (ERK2): 0.49 nM
